{
  "source": "patent US20110294992A1",
  "about": "“METAL RESPONSIVE MRI-AGENTS” (The Regents of the University of California, priority 2010, published 2011)",
  "key": {"[1]": {"assay": "Longitudinal relaxivity (r1) from T1 measurements at 60 MHz, absence of copper", "format": "physicochemical", "settings": "no copper; 60 MHz, 20 mM HEPES buffer, pH 7, 37° C., 0.2 mM Gd^3+", "protocol": "The longitudinal relaxivity values for the CG contrast agents in the absence or presence of copper ions were determined using T1 measurements at 60 MHz. Studies were performed at 37° C. in 20 mM HEPES buffered to pH 7, and solutions of the purified CG sensors for relaxivity experiments contained 0.2 mM Gd^3+ as determined by ICP-OES. Spectroscopic data are collected in Table 1.\nNuclear magnetic relaxation dispersion (NMRD) experiments provide supporting evidence for this proposal (vide infra)."}, "[2]": {"assay": "Relaxivity response to 1 equiv Cu+ in the presence of biologically relevant anions", "format": "physicochemical", "settings": "for increase in r1 in response to Cu^+ / turn-on response to Cu^+: pH 7", "protocol": "FIG. 7. Relaxivity responses of CG2 to 1 equiv Cu^+ in the presence of biologically relevant anions. White bars represent CG2 relaxivities without Cu^+ in the presence of various anions. Black bars represent CG2 relaxivities with Cu^+ in the presence of different anions. Percentages in the black bars are the % increases r1. Relaxivity measurements with HEPES, citrate (0.13 mM), lactate (2.3 mM), and HCO3^− (10 mM, 25 mM), were acquired at 37° C. in 20 mM HEPES buffer, pH 7, at a proton Larmor frequency of 60 MHz. Relaxivity measurements with PBS were acquired under similar conditions using phosphate buffered saline, pH 7.4.\nWe also tested the copper responses of CG2-6 in the presence of physiologically relevant concentrations of common biological anions (FIG. 7). […] Carboxylate-type anions, however, can affect relaxivity responses of Cu^+-bound CG2. Addition of citrate (0.13 mM) and lactate (2.3 mM) to CG2 results in turn-on responses to Cu^+ of 220% and 71% respectively. Carbonate concentrations also affect the response of CG2; the effect of carbonate was tested at 10 mM NaHCO3 (intracellular)^104 and 25 mM NaHCO3 (extracellular)^108 and gave increases in r1 in response to Cu^+ of 190% and 140% respectively. Although the relaxivity increases observed in the presence of anions are still well within a range detectable by MRI,^109 current work is geared toward developing CG-sensors with more carboxylate functionalities incorporated into the ligand framework to minimize anion sensitivity.^55,110"}},
  "data": [
    {"smiles": "CCSCCN(CCSCC)Cc1cccc(CN2CCN(CC(=O)[O-])CCN(CC(=O)[O-])CCN(CC(=O)[O-])CC2)n1.[Gd+3]", "note": "[CG2]", "values": [
      {"measurement": "r1 (no Cu)", "setting": "[1]", "result": 1.5, "unit": "mM⁻¹ s⁻¹"},
      {"measurement": "increase in r1 in response to Cu^+", "setting": "[2]; 10 mM NaHCO3 (intracellular) in 20 mM HEPES", "result": 190, "unit": "%"},
      {"measurement": "increase in r1 in response to Cu^+", "setting": "[2]; 25 mM NaHCO3 (extracellular) in 20 mM HEPES", "result": 140, "unit": "%"},
      {"measurement": "turn-on response to Cu^+", "setting": "[2]; citrate (0.13 mM) in 20 mM HEPES, 1 equiv Cu^+", "result": 220, "unit": "%"},
      {"measurement": "turn-on response to Cu^+", "setting": "[2]; lactate (2.3 mM) in 20 mM HEPES, 1 equiv Cu^+", "result": 71, "unit": "%"},
      {"measurement": "increase in relaxivity in response to Cu^+", "setting": "[2]; phosphate buffered saline (PBS, 10 mM phosphate), pH 7.4, 1 equiv Cu^+", "result": 350, "unit": "%"}
    ]}
  ]
}
